Measurements reported in ChEMBL document CHEMBL1201862, “PubChem BioAssay data set” (2004).
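Cultured in 96-well plates, cells were exposed to test compound for 48 hours across five concentrations. GI50 = concentration required for 50% inhibition of growth.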 The source made the active and inactive calls. No stated cut-off is given here; in the data, active = GI50 up to about 1.1 µM and inactive = higher.

What was measured:
Experiment in all cases: DTP human tumour cell line panel, 48 h
A549 = system: A549
CAKI-1 = system: CAKI-1
CCRF-CEM = system: CCRF-CEM
HCC 2998 = system: HCC 2998
HCT-116 = system: HCT-116
HT-29 = system: HT-29
K562 = system: K562
MCF7 = system: MCF7
MDA-MB-231 = system: MDA-MB-231
MDA-MB-435 = system: MDA-MB-435
MDA-N = system: MDA-N
MOLT-4 = system: MOLT-4
NCI-H226 = system: NCI-H226
RPMI-8226 = system: RPMI-8226
SK-MEL-28 = system: SK-MEL-28
SK-MEL-5 = system: SK-MEL-5
SK-OV-3 = system: SK-OV-3
SN12C = system: SN12C
T47D = system: T47D
U-251 = system: U-251

CCOC(=O)c1sc2nc(SC)nc(Nc3ccc4c(c3)OCCCO4)c2c1N
GI50 (A549): 8.47 µM (inactive)
GI50 (CAKI-1): > 100 µM (inactive)
GI50 (CCRF-CEM): 4.66 µM (inactive)
GI50 (HCC 2998): 25.2 µM (inactive)
GI50 (HCT-116): 67.1 µM (inactive)
GI50 (HT-29): 32.8 µM (inactive)
GI50 (K562): 9.04 µM (inactive)
GI50 (MCF7): 7.71 µM (inactive)
GI50 (MDA-MB-231): 33 µM (inactive)
GI50 (MDA-MB-435): 11.1 µM (inactive)
GI50 (MDA-N): 20.5 µM (inactive)
GI50 (MOLT-4): 2.55 µM (inactive)
GI50 (NCI-H226): 42.2 µM (inactive)
GI50 (RPMI-8226): 4.25 µM (inactive)
GI50 (SK-MEL-28): > 100 µM (inactive)
GI50 (SK-MEL-5): 3.29 µM (inactive)
GI50 (SK-OV-3): 55.6 µM (inactive)
GI50 (SN12C): > 100 µM (inactive)
GI50 (T47D): 2.14 µM (inactive)
GI50 (U-251): 46.5 µM (inactive)

CC1=C2CC(C)(C)/C=C\C(=O)/C(C)=C\C3=C[C@H](C)C[C@]3(O2)C1=O
GI50 (A549): 4.47 µM (inactive)
GI50 (CAKI-1): 0.255 µM (active)
GI50 (CCRF-CEM): 0.138 µM (active)
GI50 (HCC 2998): 4.85 µM (inactive)
GI50 (HCT-116): 0.443 µM (active)
GI50 (HT-29): 0.927 µM (active)
GI50 (K562): 1.51 µM (inactive)
GI50 (MCF7): 0.343 µM (active)
GI50 (MDA-MB-231): 1.05 µM (active)
GI50 (MDA-MB-435): 0.706 µM (active)
GI50 (MDA-N): 0.914 µM (active)
GI50 (MOLT-4): 0.195 µM (active)
GI50 (NCI-H226): 3.46 µM (inactive)
GI50 (RPMI-8226): 0.326 µM (active)
GI50 (SK-MEL-28): 0.798 µM (active)
GI50 (SK-MEL-5): 1.48 µM (inactive)
GI50 (SK-OV-3): 9.51 µM (inactive)
GI50 (SN12C): 1.42 µM (inactive)
GI50 (T47D): 0.544 µM (active)
GI50 (U-251): 3.86 µM (inactive)

CCOC(CBr)OC1C(=O)OCC1(C)C (centres undefined)
GI50 (A549): > 100 µM (inactive)
GI50 (CAKI-1): > 100 µM (inactive)
GI50 (CCRF-CEM): > 100 µM (inactive)
GI50 (HCC 2998): > 100 µM (inactive)
GI50 (HCT-116): > 100 µM (inactive)
GI50 (HT-29): > 100 µM (inactive)
GI50 (K562): > 100 µM (inactive)
GI50 (MCF7): > 100 µM (inactive)
GI50 (MDA-MB-231): > 100 µM (inactive)
GI50 (MDA-MB-435): > 100 µM (inactive)
GI50 (MDA-N): > 100 µM (inactive)
GI50 (MOLT-4): > 100 µM (inactive)
GI50 (NCI-H226): > 100 µM (inactive)
GI50 (RPMI-8226): > 100 µM (inactive)
GI50 (SK-MEL-28): > 100 µM (inactive)
GI50 (SK-MEL-5): > 100 µM (inactive)
GI50 (SK-OV-3): > 100 µM (inactive)
GI50 (SN12C): > 100 µM (inactive)
GI50 (T47D): > 100 µM (inactive)
GI50 (U-251): > 100 µM (inactive)

C/N=C/N(C)c1c2ccccc2nc2ccccc12
GI50 (A549): > 100 µM (inactive)
GI50 (CAKI-1): > 100 µM (inactive)
GI50 (CCRF-CEM): > 100 µM (inactive)
GI50 (HCC 2998): > 100 µM (inactive)
GI50 (HCT-116): > 100 µM (inactive)
GI50 (HT-29): > 100 µM (inactive)
GI50 (K562): > 100 µM (inactive)
GI50 (MCF7): > 100 µM (inactive)
GI50 (MDA-MB-231): > 100 µM (inactive)
GI50 (MDA-MB-435): > 100 µM (inactive)
GI50 (MDA-N): > 100 µM (inactive)
GI50 (MOLT-4): > 100 µM (inactive)
GI50 (NCI-H226): > 100 µM (inactive)
GI50 (RPMI-8226): > 100 µM (inactive)
GI50 (SK-MEL-28): > 100 µM (inactive)
GI50 (SK-MEL-5): > 100 µM (inactive)
GI50 (SK-OV-3): > 100 µM (inactive)
GI50 (SN12C): > 100 µM (inactive)
GI50 (T47D): 85.7 µM (inactive)
GI50 (U-251): > 100 µM (inactive)

COc1c(C)c(OC)c(C(=O)CC(C)C)c(OC)c1C
GI50 (A549): > 100 µM (inactive)
GI50 (CAKI-1): > 100 µM (inactive)
GI50 (CCRF-CEM): > 100 µM (inactive)
GI50 (HCC 2998): > 100 µM (inactive)
GI50 (HCT-116): 65.6 µM (inactive)
GI50 (HT-29): 63.4 µM (inactive)
GI50 (MCF7): > 100 µM (inactive)
GI50 (MDA-MB-231): > 100 µM (inactive)
GI50 (MDA-MB-435): > 100 µM (inactive)
GI50 (MDA-N): > 100 µM (inactive)
GI50 (MOLT-4): 43.7 µM (inactive)
GI50 (NCI-H226): > 100 µM (inactive)
GI50 (RPMI-8226): 20.3 µM (inactive)
GI50 (SK-MEL-28): > 100 µM (inactive)
GI50 (SK-MEL-5): 40.3 µM (inactive)
GI50 (SK-OV-3): > 100 µM (inactive)
GI50 (SN12C): > 100 µM (inactive)
GI50 (T47D): 68.1 µM (inactive)
GI50 (U-251): > 100 µM (inactive)
